Measurements from PubChem BioAssay (NCI).
Several values for one entry are separate records, joined by “and”; a condition that tells them apart may be missing. Identical values can stand only once.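 48-hour exposure; five concentrations; linearly interpolated endpoints. Here, GI50 denotes the concentration required for 50% inhibition of growth. TGI is the concentration that stops growth completely.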

Key:
Assay in all cases: inhibition of tumour cell growth, NCI panel, 48 h
[1] = system: RXF 393 renal
[2] = system: IGROV1 ovarian
[3] = system: NCI-H226 lung
[4] = system: SNB-19 CNS
[5] = system: MALME-3M melanoma
[6] = system: NCI-H522 lung
[7] = system: K-562 leukemia
[8] = system: EKVX NSCLC
[9] = system: SK-MEL-5 melanoma
[10] = system: LOX IMVI melanoma

Row | Structure (SMILES) | GI50 [1] | TGI [1] | GI50 [2] | TGI [2] | GI50 [3] | GI50 [4] | TGI [4] | GI50 [5] | TGI [5] | GI50 [6] | GI50 [7] | TGI [7] | GI50 [8] | GI50 [9] | TGI [9] | GI50 [10] | TGI [10] | TGI [3] | TGI [6] | TGI [8]
1 | Cn1c(=O)n(-c2ccc(C(C)(C)C#N)cc2)c2c3cc(-c4cnc5ccccc5c4)ccc3ncc21 | < 0.01 µM and 0.00351 µM | 0.0605 µM and 0.00781 µM and 0.0181 µM | < 0.01 µM and 0.00363 µM | 0.0258 µM and 0.0381 µM | < 0.001 µM | 0.012 µM and 0.00605 µM and 0.0102 µM | > 100 µM | 0.00576 µM and < 0.01 µM | 0.04 µM and 0.0568 µM | < 0.0107 µM and 0.00646 µM and < 0.0112 µM | 0.0315 µM and 0.00731 µM and 0.0118 µM | > 100 µM | 0.0152 µM and 0.00573 µM and < 0.012 µM | 0.0154 µM and 0.00646 µM and < 0.0152 µM | 0.0911 µM and 0.106 µM and 0.0859 µM | < 0.01 µM and 0.00522 µM | > 100 µM |  |  | 
2 | CN1C(=O)c2cc(Cl)nc3c(NC(=O)c4cccc(Cl)c4)c(Cl)c(NC(=O)c4cccc(Cl)c4)c1c23 | 1.67 µM | 3.12 µM | 1.42 µM | 3.15 µM | 2.02 µM | 2.45 µM | 6.08 µM | 1.66 µM | 3.44 µM | 1.82 µM | 1.01 µM | 2.57 µM | 1.85 µM | 2.09 µM | 4.36 µM | 1.21 µM | 2.58 µM | 4.05 µM | 3.75 µM | 4.21 µM
3 | CN1CCCC1c1cccnc1.O=C(O)c1ccccc1O.O=C([O-])c1ccccc1[OH2+].O=C([O-])c1ccccc1[OH2+].O=C([O-])c1ccccc1[OH2+].[Mn+2] (stereo unspecified) | > 100 µM | > 100 µM | 97.7 µM | > 100 µM | > 100 µM | > 100 µM | > 100 µM | 17.8 µM | 52.2 µM | 12.1 µM | > 100 µM | > 100 µM | > 100 µM | > 100 µM | > 100 µM | > 100 µM | > 100 µM | > 100 µM | 27.7 µM | > 100 µM
4 | O=C(CCCCCCCCCCc1ccccc1)c1c(O)cccc1O |  | 39.9 µM |  | 60.5 µM |  |  | 41.3 µM |  | 34.3 µM |  |  | 58.7 µM |  |  | 30.4 µM |  | 72.9 µM | 41.8 µM | 42.4 µM | 48.7 µM
5 | CC1(CC(=O)O)OC2CCCCCC2O1 (stereo unspecified) (tested in a mixture with another compound) |  | > 100 µM |  | > 100 µM |  |  | > 100 µM |  | > 100 µM |  |  | > 100 µM |  |  | > 100 µM |  | > 100 µM | > 100 µM | > 100 µM | > 100 µM
6 | O=C(CCCCCCCCC(=O)OCC1OC(n2cnc3c(=O)[nH]cnc32)C(O)C1O)OCC1OC(n2cnc3c(=O)[nH]cnc32)C(O)C1O (stereo unspecified) |  | > 100 µM |  | > 100 µM |  |  | > 100 µM |  | > 100 µM |  |  | > 100 µM |  |  | > 100 µM |  | > 100 µM | > 100 µM | > 100 µM | > 100 µM
7 | Cc1ccc(NCSc2ccc(Cl)cc2)cc1 | 30.4 µM | > 100 µM | 15.3 µM | > 100 µM | 44.7 µM | 46.9 µM | > 100 µM | > 100 µM | > 100 µM | 21.9 µM | > 100 µM | > 100 µM | 31.4 µM | > 100 µM | > 100 µM | > 100 µM | > 100 µM | > 100 µM | > 100 µM | > 100 µM
8 | COc1ccccc1Cn1cc2c(c1)-c1oncc1CC2 | 1.31 µM | > 21.4 µM | 1.84 µM | > 78.7 µM | 6.99 µM | 0.625 µM | > 100 µM | 1.41 µM | > 100 µM | 1.22 µM | 0.391 µM | > 33.5 µM | 0.83 µM | 0.45 µM | 6.77 µM | 0.946 µM | 23.1 µM | > 100 µM | 5.08 µM | > 94.2 µM
9 | S=C(Nc1ccccc1)Nc1[nH]c(=S)sc1-c1nc2ccccc2[nH]1 |  | > 100 µM |  | > 100 µM |  |  | > 100 µM |  | > 100 µM |  |  | > 100 µM |  |  | > 100 µM |  | > 100 µM | 29.4 µM | > 100 µM | > 100 µM
10 | COC(=O)/C(C#N)=C1\N=NNN1CCCN1CCOCC1 |  | > 100 µM |  | > 100 µM |  |  | > 100 µM |  | > 100 µM |  |  | > 100 µM |  |  | > 100 µM |  | > 100 µM | > 100 µM | > 100 µM | > 100 µM
11 | COc1cc(C2C3=C(COC3=O)N(CCO)c3cc4c(cc32)CCC4)cc(OC)c1O (stereo unspecified) | 0.0943 µM |  | 0.159 µM | 11.4 µM | 3.75 µM | 0.318 µM | > 32.5 µM | 0.104 µM | > 32.5 µM | 0.0432 µM | 0.161 µM | > 32.5 µM | 1.38 µM | 0.102 µM | > 11 µM | 0.187 µM | > 32.5 µM | > 32.5 µM | 0.122 µM | > 32.5 µM
12 | NC(Cc1nn[nH]n1)C(=O)O (stereo unspecified) |  | > 100 µM |  | > 100 µM |  |  | > 100 µM |  | > 100 µM |  |  | > 100 µM |  |  | > 100 µM |  | > 100 µM | > 100 µM | > 100 µM | > 100 µM
13 | CC1=CC2=C(C)C3(CC3)[C@@](C)(O)C(=O)C2=C1 |  | 0.246 µM |  | > 0.979 µM |  |  | 0.545 µM |  | 0.424 µM |  |  | > 1 µM |  |  | 0.294 µM |  | 0.594 µM | 0.492 µM | 0.296 µM | 0.992 µM
14 | CN1CC2(CCCCC2)C(O)C12C=CCCC2 (stereo unspecified) |  | > 100 µM |  | > 100 µM |  |  | > 100 µM |  | > 100 µM |  |  | > 100 µM |  |  | > 100 µM |  | > 100 µM | > 100 µM | > 100 µM | > 100 µM
15 | CCOC(=O)c1cnc2[nH]c(=O)c3ccccc3n2c1=O |  | > 100 µM |  | > 100 µM |  |  | > 100 µM |  | > 100 µM |  |  | > 100 µM |  |  | > 100 µM |  | > 100 µM | > 100 µM | > 100 µM | > 100 µM
16 | CC(C)OP(=O)(CP(=O)(OC(C)C)OC(C)C)OC(C)C.[CH3][Sn]([Br])([Br])[Br] | > 100 µM | > 100 µM | > 100 µM | > 100 µM | > 100 µM | > 100 µM | > 100 µM | > 100 µM | > 100 µM | > 100 µM | > 100 µM | > 100 µM | > 100 µM | > 100 µM | > 100 µM | > 100 µM | > 100 µM | > 100 µM | > 100 µM | > 100 µM
17 | O=C(O)c1cc(Cl)cc(NC(=O)C(Cl)Cl)c1Cl |  | > 100 µM |  | > 100 µM |  |  | > 100 µM |  | > 100 µM |  |  | > 100 µM |  |  | > 100 µM |  | > 100 µM | > 100 µM | > 100 µM | > 100 µM
18 | COC(=O)c1c(C)oc2ccc(OC(C)=O)cc12 |  | > 100 µM |  | > 100 µM |  |  | > 100 µM |  | > 100 µM |  |  | > 100 µM |  |  | > 100 µM |  | > 100 µM | > 100 µM | > 100 µM | > 100 µM
